Data on ten molecules can be found in patent US10125111B2, “Benzofuran compounds for the treatment of hepatitis C” (BRISTOL-MYERS SQUIBB COMPANY, priority 2015, dated 2018).

Like-named read-outs stand apart in the source and are kept apart here.

The subject of data set [1] is HCV. The settings on record: cited from earlier work.
Data set [2] relates to genotype 1b (Con-1) HCV replicon. The experiment in a line: HCV Replicon Luciferase Assay. In kind it is cell-based. The settings on record: Hepatitis C virus, 72 h, Huh-7 genotype 1b replicon, Renilla luciferase, 3 days incubation. The protocol:
The cell lines used to evaluate compounds consist of a human hepatocyte derived cell line (Huh-7) that constitutively expresses a genotype 1b (Con-1) HCV replicon or a genotype 1b (Con-1) HCV replicon with an asparagine replacing the cysteine at amino acid 316, or a genotype 2a (JFH-1) replicon, containing a Renilla luciferase reporter gene. These cells were maintained in Dulbecco's modified Eagle medium (DMEM) containing 10% FBS, 100 U/mL penicillin/streptomycin and 1.0 mg/mL G418.
To evaluate compound efficacy, titrated compounds were transferred to sterile 384-well tissue culture treated plates, and the plates were seeded with HCV replicon cells (50 μL at a density of 2.4×10^3 cells/well) in DMEM containing 4% FBS (final DMSO concentration at 0.5%). After 3 days incubation at 37° C., cells were analyzed for Renilla Luciferase activity using the EnduRen substrate (Promega cat #E6485) according to the manufacturer's directions. Briefly, the EnduRen substrate was diluted in DMEM and then added to the plates to a final concentration of 7.5 μM. The plates were incubated for at least 1 h at 37° C. then read on a Viewlux Imager (PerkinElmer) using a luminescence program. The 50% effective concentration (EC50) was calculated using the four-parameter logistic Formula noted above.
Compound EC50 data is expressed as A: <100 nM; B=100-1000 nM; C>1000 nM).
(A replicon is a self-replicating genome or part of one, used to study replication in cells.)

Take `CNC(=O)c1c(-c2ccc(F)cc2)oc2cc(N(CCO)S(C)(=O)=O)c(C3CC3)cc12` [HCV-796]: the “toxicity during extended dosing” value in data set [1] (combination regimens with interferon and ribavirin) was “hepatic toxicity”. In the case of alpha-interferon and ribavirin, the “sustained efficacy, patients” value in data set [1] (combination therapy, patients) is given as 40%. Broadly, the EC50 is the concentration that produces a half-maximal response. In the case of `CNC(=O)c1c(-c2ccc(F)cc2)oc2cc(N(CCF)S(C)(=O)=O)c(-c3cccc(C(=O)N4CC[C@@H](NC(=O)OC(C)(C)C)C4)c3)cc12` [Compound 3038], the EC50 in data set [2] (read-out: EC50 1b (class)) was below 0.1 µM. As for `[2H]C([2H])([2H])C(NC(=O)c1cccc(-c2cc3c(C(=O)NC)c(-c4ccc(F)cc4)oc3cc2N(C(F)F)S(C)(=O)=O)c1)(C([2H])([2H])[2H])C([2H])([2H])[2H]` [Compound 6006], the EC50 in data set [2] (read-out: EC50 1b (class)) was below 0.1 µM.

Regarding `CNC(=O)c1c(-c2ccc(F)cc2)oc2cc(N(CC(F)F)S(C)(=O)=O)c(-c3cccc(C(=O)NC(CF)(CF)CF)c3)cc12` [Compound 7004], in data set [2] (read-out: EC50 1b (class)), the EC50 was below 0.1 µM. For `CNC(=O)c1c(-c2ccc(F)cc2)oc2cc(N(CCF)S(C)(=O)=O)c(-c3cccc(C(=O)N4CCN(c5cccnc5)CC4)c3)cc12` [Compound 3032], the EC50 is above 1 µM in data set [2] (read-out: EC50 1b (class)) and 2.64 µM in data set [2] (read-out: EC50 (uM) 1b).

Regarding `CNC(=O)c1c(-c2ccc(F)cc2)oc2cc(N(CC#N)S(C)(=O)=O)c(-c3cccc(C(=O)OC)c3)cc12` [Compound 1001], the EC50 in data set [2] (read-out: EC50 1b (class)) is below 0.1 µM; in data set [2] (read-out: EC50 (uM) 1b), 0.0578 µM. Turning to `CNC(=O)c1c(-c2ccc(F)cc2)oc2cc(N(CCF)S(C)(=O)=O)c(-c3cccc(C(=O)N4CCC(O)C4)c3)cc12` (stereo not shown) [Compound 3039], the results for the EC50 in data set [2] (read-out: EC50 1b (class)) and in data set [2] (read-out: EC50 (uM) 1b) were above 1 µM and 1.61 µM, respectively. As to `CNC(=O)c1c(-c2ccc(F)cc2)oc2cc(N(C(F)F)S(C)(=O)=O)c(-c3cccc(C(=O)OC)c3)cc12` [Compound 6001], in data set [2] (read-out: EC50 1b (class)), the EC50 was below 0.1 µM. As for `[2H]C([2H])([2H])C(NC(=O)c1cccc(-c2cc3c(C(=O)NC)c(-c4ccc(F)cc4)oc3cc2N(CC2CC2)S(C)(=O)=O)c1)(C([2H])([2H])[2H])C([2H])([2H])[2H]` [Compound 2006], the EC50 in data set [2] (read-out: EC50 1b (class)) is below 0.1 µM.
